Drawing on US9802928B2 (Merck Sharp & Dohme Corp., priority 2013, dated 2017), this text covers Ki for 19 compounds.

Assay [1] has as its target purified human autoBACE-2 (Homo sapiens (Human), UniProt Q9Y5Z0). Put plainly: BACE-2 Assay (BACE-HTRF assay). The format is biochemical. Particulars: Ki calculated from IC50 using the Cheng-Prusoff equation; QSY7-EISEVNLDAEFC-Eu-amide substrate, pH 5.0; read-out: BACE2 Ki. The procedure:
Inhibitor IC50s at purified human autoBACE-2 are determined in a time-resolved endpoint proteolysis assay that measures hydrolysis of the QSY7-EISEVNLDAEFC-Eu-amide FRET peptide substrate (BACE-HTRF assay). BACE-mediated hydrolysis of this peptide results in an increase in relative fluorescence (RFU) at 620 nm after excitation with 320 nm light. Inhibitor compounds, prepared at 3× the desired final concentration in 1×BACE assay buffer (20 mM sodium acetate pH 5.0, 10% glycerol, 0.1% Brij-35) supplemented with 7.5% DMSO are pre-incubated with an equal volume of autoBACE-2 enzyme diluted in 1×BACE assay buffer (final enzyme concentration 1 nM) in black 384-well NUNC plates for 30 minutes at 30° C. The assay is initiated by addition of an equal volume of the QSY7-EISEVNLDAEFC-Eu-amide substrate (200 nM final concentration, Km=8 μM […] for autoBACE-2) prepared in 1×BACE assay buffer supplemented with 7.5% DMSO and incubated for 90 minutes at 30° C. DMSO is present at 5% final concentration in the assay. Following laser excitation of sample wells at 320 nm, the fluorescence signal at 620 nm is collected for 400 ms following a 50 μs delay on a RUBYstar HTRF plate reader (BMG Labtechnologies). Raw RFU data is normalized to maximum (1.0 nM BACE/DMSO) and minimum (no enzyme/DMSO) RFU values. IC50s are determined by nonlinear regression analysis (sigmoidal dose response, variable slope) of percent inhibition data with minimum and maximum values set to 0 and 100 percent respectively. Similar IC50s are obtained when using raw RFU data. The Ki values are calculated from the IC50 using the Cheng-Prusoff equation.

In assay [2] the target is soluble human BACE1 catalytic domain (Homo sapiens (Human), UniProt P56817). As to the kind of experiment: BACE1 HTRF FRET Assay. Particulars: Ki calculated from IC50 using the Cheng-Prusoff equation; QSY7-APPswe-Eu substrate, pH 5.0. The format is biochemical. From the text:
Na^+-Acetate pH 5.0; 1% Brij-35; Glycerol; Dimethyl Sulfoxide (DMSO); Recombinant human soluble BACE1 catalytic domain (>95% pure); APP Swedish mutant peptide substrate (QSY7-APP^swe-Eu): QSY7-[…]-Europium-amide.
A homogeneous time-resolved FRET assay can be used to determine IC50 values for inhibitors of the soluble human BACE1 catalytic domain. This assay monitors the increase of 620 nm fluorescence that resulted from BACE1 cleavage of an APPswedish APP^swe mutant peptide FRET substrate (QSY7-[…]-Europium-amide). This substrate contains an N-terminal QSY7 moiety that serves as a quencher of the C-terminal Europium fluorophore (620 nm Em). In the absence of enzyme activity, 620 nm fluorescence is low in the assay and increased linearly over 3 hours in the presence of uninhibited BACE1 enzyme Inhibition of BACE1 cleavage of the QSY7-APP^swe-Eu substrate by inhibitors is manifested as a suppression of 620 nm fluorescence.
Varying concentrations of inhibitors at 3× the final desired concentration in a volume of 10 ul are preincubated with purified human BACE1 catalytic domain (3 nM in 10 μl) for 30 minutes at 30° C. in reaction buffer containing 20 mM Na-Acetate pH 5.0, 10% glycerol, 0.1% Brij-35 and 7.5% DSMO. Reactions are initiated by addition of 10 μl of 600 nM QSY7-APP^swe-Eu substrate (200 nM final) to give a final reaction volume of 30 μl in a 384 well Nunc HTRF plate. The reactions are incubated at 30° C. for 1.5 hours. The 620 nm fluorescence is then read on a Rubystar HTRF plate reader (BMG Labtechnologies) using a 50 millisecond delay followed by a 400 millisecond acquisition time window. Inhibitor IC50 values are derived from non-linear regression analysis of concentration response curves. Ki values are then calculated from IC50 values using the Cheng-Prusoff equation using a previously determined […] of 8 μM for the QSY7-APP^swe-Eu substrate at BACE1.

Sequence of soluble human BACE1 catalytic domain (P56817 75-416): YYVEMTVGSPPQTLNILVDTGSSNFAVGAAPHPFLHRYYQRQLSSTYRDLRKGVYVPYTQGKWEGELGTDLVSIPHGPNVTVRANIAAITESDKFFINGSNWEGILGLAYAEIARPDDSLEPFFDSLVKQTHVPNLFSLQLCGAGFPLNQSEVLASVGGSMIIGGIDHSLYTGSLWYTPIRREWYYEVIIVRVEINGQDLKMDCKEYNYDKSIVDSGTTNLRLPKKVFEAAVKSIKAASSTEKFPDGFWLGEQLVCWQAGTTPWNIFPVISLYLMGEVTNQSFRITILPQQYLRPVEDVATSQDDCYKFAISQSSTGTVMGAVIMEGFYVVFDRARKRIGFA
Sequence of purified human autoBACE-2 (Q9Y5Z0 63-473 limits assumed): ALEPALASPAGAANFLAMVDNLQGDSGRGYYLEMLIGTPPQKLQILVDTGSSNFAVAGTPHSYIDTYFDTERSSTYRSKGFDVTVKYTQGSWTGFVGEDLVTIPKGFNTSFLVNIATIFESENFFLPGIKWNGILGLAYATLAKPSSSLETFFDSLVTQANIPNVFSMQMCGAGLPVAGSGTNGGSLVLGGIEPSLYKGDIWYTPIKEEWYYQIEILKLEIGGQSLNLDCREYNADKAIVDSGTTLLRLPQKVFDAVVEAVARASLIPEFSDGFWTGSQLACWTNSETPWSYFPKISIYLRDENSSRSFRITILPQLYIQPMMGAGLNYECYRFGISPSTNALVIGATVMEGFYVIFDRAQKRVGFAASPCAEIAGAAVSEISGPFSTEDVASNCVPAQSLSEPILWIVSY

For `COc1ccc(C(=O)Nc2ccc(F)c([C@@]3(C)NC(=N)N(C)S(=O)(=O)C34CC4)c2)nc1` [Example 1a, N-{4-fluoro-3-[(8R)-6-imino-5,8-dimethyl-4,4-dioxido-4-thia-5,7-diazaspiro[2.5]oct-8-yl]phenyl}-5-methoxypyridine-2-carboxamide], the Ki (usually a dissociation constant, usually derived from enzyme kinetics or from competition with a known ligand) was 17 nM in assay [1] and 18 nM in assay [2].
For `CN1C(=N)N[C@](C)(c2cc(NC(=O)c3cn(C)nc3C(F)(F)F)ccc2F)C2(CC2)S1(=O)=O` [Example 1b, N-{4-fluoro-3-[(8R)-6-imino-5,8-dimethyl-4,4-dioxido-4-thia-5,7-diazaspiro[2.5]oct-8-yl]phenyl}-1-methyl-3-(trifluoromethyl)-1H-pyrazole-4-carboxamide], the Ki was 3250 nM in assay [1] and 4940 nM in assay [2].
On the same counts, the results for `C#CCOc1ccc(C(=O)Nc2ccc(F)c([C@@]3(C)NC(=N)N(C)S(=O)(=O)C34CC4)c2)nc1` [Example 1c, N-{4-fluoro-3-[(8R)-6-imino-5,8-dimethyl-4,4-dioxido-4-thia-5,7-diazaspiro[2.5]oct-8-yl]phenyl}-5-(prop-2-yn-1-yloxy)pyridine-2-carboxamide] are 95 nM and 6 nM.
On the same counts, the results for `CN1C(=N)N[C@](C)(c2cc(NC(=O)c3cnsn3)ccc2F)C2(CC2)S1(=O)=O` [Example 1d, N-{4-fluoro-3-[(8R)-6-imino-5,8-dimethyl-4,4-dioxido-4-thia-5,7-diazaspiro[2.5]oct-8-yl]phenyl}-1,2,5-thiadiazole-3-carboxamide] are 15 nM and 25 nM.
The like results for `COc1cnc(C(=O)Nc2ccc(F)c([C@@]3(C)NC(=N)N(C)S(=O)(=O)C34CC4)c2)cn1` [Example 1e] were, in that order, 56 nM and 20 nM.
As for `CN1C(=N)N[C@](C)(c2cc(NC(=O)c3ccc(C(F)(F)F)cn3)ccc2F)C2(CC2)S1(=O)=O` [Example 1f, N-{4-fluoro-3-[(8R)-6-imino-5,8-dimethyl-4,4-dioxido-4-thia-5,7-diazaspiro[2.5]oct-8-yl]phenyl}-5-(trifluoromethyl)pyridine-2-carboxamide], the Ki is 55 nM in assay [1] and 8 nM in assay [2].
The like results for `CN1C(=N)N[C@](C)(c2cc(NC(=O)c3ccc(C#N)cn3)ccc2F)C2(CC2)S1(=O)=O` [Example 1g, 5-cyano-N-{4-fluoro-3-[(8R)-6-imino-5,8-dimethyl-4,4-dioxido-4-thia-5,7-diazaspiro[2.5]oct-8-yl]phenyl}pyridine-2-carboxamide] were, in that order, 17 nM and 3 nM.
Consider `Cc1nc(C(=O)Nc2ccc(F)c([C@@]3(C)NC(=N)N(C)S(=O)(=O)C34CC4)c2)no1` [Example 1h, N-{4-fluoro-3-[(8R)-6-imino-5,8-dimethyl-4,4-dioxido-4-thia-5,7-diazaspiro[2.5]oct-8-yl]phenyl}-5-methyl-1,2,4-oxadiazole-3-carboxamide], for which the Ki was 8 nM in assay [1] and 31 nM in assay [2].
On the same counts, the results for `CN1C(=N)N[C@](C)(c2cc(NC(=O)c3ncc(C(F)(F)F)cn3)ccc2F)C2(CC2)S1(=O)=O` [Example 1i, N-{4-fluoro-3-[(8R)-6-imino-5,8-dimethyl-4,4-dioxido-4-thia-5,7-diazaspiro[2.5]oct-8-yl]phenyl}-5-(trifluoromethyl)pyrimidine-2-carboxamide] are 106 nM and 47 nM.
`COc1cnc(C(=O)Nc2ccc(F)c([C@@]3(C)NC(=N)N(C)S(=O)(=O)C34CC4)c2)c(C)c1` [Example 1j]: the values for the inhibition constant (Ki) in assay [1] and in assay [2] were 10 nM and 22 nM, respectively.
On the same counts, the results for `Cc1cc(C#N)cnc1C(=O)Nc1ccc(F)c([C@@]2(C)NC(=N)N(C)S(=O)(=O)C23CC3)c1` [Example 1k, 5-cyano-N-{4-fluoro-3-[(8R)-6-imino-5,8-dimethyl-4,4-dioxido-4-thia-5,7-diazaspiro[2.5]oct-8-yl]phenyl}-3-methylpyridine-2-carboxamide] are 5 nM and 2 nM.
`CN1C(=N)N[C@](C)(c2cc(NC(=O)c3ccn(C(F)F)n3)ccc2F)C2(CC2)S1(=O)=O` [Example 1l, 1-(difluoromethyl)-N-{4-fluoro-3-[(8R)-6-imino-5,8-dimethyl-4,4-dioxido-4-thia-5,7-diazaspiro[2.5]oct-8-yl]phenyl}-1H-pyrazole-3-carboxamide]: the Ki is 2 nM in assay [1] and 5 nM in assay [2].
On the same counts, the results for `CN1C(=N)N[C@](C)(c2cc(NC(=O)c3cn4ccc(C#N)cc4n3)ccc2F)C2(CC2)S1(=O)=O` [Example 1m, 7-cyano-N-{4-fluoro-3-[(8R)-6-imino-5,8-dimethyl-4,4-dioxido-4-thia-5,7-diazaspiro[2.5]oct-8-yl]phenyl}imidazo[1,2-a]pyridine-2-carboxamide] are 1640 nM and 5500 nM.
The like results for `Cc1cc(C(=O)Nc2ccc(F)c([C@@]3(C)NC(=N)N(C)S(=O)(=O)C34CC4)c2)no1` [Example 1n, N-{4-fluoro-3-[(8R)-6-imino-5,8-dimethyl-4,4-dioxido-4-thia-5,7-diazaspiro[2.5]oct-8-yl]phenyl}-5-methylisoxazole-3-carboxamide] were, in that order, 220 nM and 620 nM.
The like results for `CN1C(=N)N[C@](C)(c2cc(NC(=O)c3ncc(Cl)cc3F)ccc2F)C2(CC2)S1(=O)=O` [Example 1o, 5-chloro-3-fluoro-N-{4-fluoro-3-[(8R)-6-imino-5,8-dimethyl-4,4-dioxido-4-thia-5,7-diazaspiro[2.5]oct-8-yl]phenyl}pyridine-2-carboxamide] were, in that order, 3 nM and 6 nM.
Take `CN1C(=N)N[C@](C)(c2cc(NC(=O)c3cnc(C(F)(F)F)cn3)ccc2F)C2(CC2)S1(=O)=O` [Example 1p, 5-N-{4-fluoro-3-[(8R)-6-imino-5,8-dimethyl-4,4-dioxido-4-thia-5,7-diazaspiro[2.5]oct-8-yl]phenyl}-5-(trifluoromethyl)pyrazine-2-carboxamide]: the figures for the Ki in assay [1] and in assay [2] were 346 nM and 58 nM, respectively.
The like results for `COc1cnc(C(=O)Nc2ccc(F)c([C@@]3(C)NC(=N)N(C)S(=O)(=O)C34CC4)c2)c(C)n1` [Example 1q, N-{4-fluoro-3-[(8R)-6-imino-5,8-dimethyl-4,4-dioxido-4-thia-5,7-diazaspiro[2.5]oct-8-yl]phenyl}-5-methoxy-3-methylpyrazine-2-carboxamide] were, in that order, 41 nM and 38 nM.
On to `CN1C(=N)N[C@](C)(c2cc(NC(=O)c3ccc(F)cn3)ccc2F)C2(CC2)S1(=O)=O` [Example 1r, 5-fluoro-N-{4-fluoro-3-[(8R)-6-imino-5,8-dimethyl-4,4-dioxido-4-thia-5,7-diazaspiro[2.5]oct-8-yl]phenyl}pyridine-2-carboxamide], for which the Ki in assay [1] is 8 nM; in assay [2], 16 nM.
On the same counts, the results for `CN1C(=N)N[C@](C)(c2cc(NC(=O)c3ccc(OC(F)F)cn3)ccc2F)C2(CC2)S1(=O)=O` [Example 1s, 5-(difluoromethoxy)-N-{4-fluoro-3-[(8R)-6-imino-5,8-dimethyl-4,4-dioxido-4-thia-5,7-diazaspiro[2.5]oct-8-yl]phenyl}pyridine-2-carboxamide] are 46 nM and 8 nM.
